This note sets out measurements from publication PMC10338316, “Functional and structural characterization of Streptococcus pneumoniae pyruvate kinase involved in fosfomycin resistance” (The Journal of Biological Chemistry, 2023).

Data set [1] deals with T1, SpPYK (Streptococcus pneumoniae, UniProt Q8DQ84).
T1 construct: gene pykF; recombinant, E. coli BL21(DE3) derivative, His60 Ni resin (tag details in supplement); homotetramer; single pyk gene
The data set can be described thus: X-ray crystal structure (FBP, PEP/FBP at […] Å, oxalate/FBP). Conditions: allosteric activator; effector binding site in the C domain.

Data set [2] concerns the target T1, SpPYK. The data set can be described thus: lactate dehydrogenase coupled assay, NADH absorbance at […] nm. Format: biochemical. The note with it: allosteric activator (modest), 2 mM G6P; PEP varied, 3 mM ADP, pH 7.5, 25 °C.
Data set [3] has as its target T1, SpPYK. The data set can be described thus: X-ray crystal structure (PEP; PEP/FBP at […] Å). It is filed as binding. The note with it: catalytic site, Mg2+ and K+.
In data set [4] the target is T1, SpPYK. The data set can be described thus: X-ray crystal structure (oxalate; oxalate/FBP). It is filed as binding. The note with it: catalytic site; enolpyruvate analog; weak density for a second oxalate in the effector site.
Data set [5] has as its system C=C(OP(=O)(O)O)C(=O)O. The data set can be described thus: purified protein. The note with it: 3 mM ADP, 10 mM MgCl2, 100 mM KCl, 20 mM HEPES pH 7.5, 25 °C, no effector, Hill coefficient 1.88 ± 0.10.
In data set [6] the test system is Nc1ncnc2c1ncn2[C@@H]1O[C@H](COP(=O)(O)OP(=O)(O)O)[C@@H](O)[C@H]1O. The data set can be described thus: purified protein. Conditions: 3 mM PEP, 10 mM MgCl2, 100 mM KCl, 20 mM HEPES pH 7.5, 25 °C, Hill coefficient 1.47 ± 0.07.
Data set [7] deals with the molecule itself. The data set can be described thus: crystal structure; X-ray crystal structures of SpPYK in six states (apo, oxalate, oxalate/FBP, FBP, PEP, PEP/FBP); vapor diffusion at 25 °C, 15 to 20 mg/ml protein in 20 mM HEPES pH 7.5, 150 mM NaCl, for the ligand-bound forms with 100 mM KCl, 20 mM MgCl2 and 5-20 mM ligand(s); protomers of the tetramer.

On to `O=P(O)(O)OC[C@H]1OC(O)(COP(=O)(O)O)[C@@H](O)[C@@H]1O` (stereo partly shown) [FBP, fructose 1,6-bisphosphate], for which, in data set [1], the “X-ray crystal structure (FBP, PEP/FBP at 1.8 Å, oxalate/FBP)” value is on record as “FBP is found at the effector binding site in the C domain”.

Turning to `O=P(O)(O)OC[C@H]1OC(O)[C@H](O)[C@@H](O)[C@@H]1O` (stereo partly shown) [G6P, glucose 6-phosphate], the “lactate dehydrogenase coupled assay, NADH absorbance at 340 nm” value in data set [2] was “only a modest activation effect was observed upon G6P addition”.

For `C=C(OP(=O)(O)O)C(=O)O` [PEP, phosphoenolpyruvate], the “X-ray crystal structure (PEP; PEP/FBP at 1.8 Å)” value in data set [3] was “The bound PEP or oxalate is seen in the catalytic site”.

As to `O=C(O)C(=O)O` [oxalate], the “X-ray crystal structure (oxalate; oxalate/FBP)” value in data set [4] was “The bound PEP or oxalate is seen in the catalytic site”.

For SpPYK (Streptococcus pneumoniae R6), the figures for the K0.5 in data set [5] and in data set [6] were 1.36 ± 0.06 mM and 1.09 ± 0.06 mM, respectively.

B1: Streptococcus pneumoniae pyruvate kinase (enzyme)
chain: MNKRVKIVATLGPAVEIRGGKKFGEDGYWGEKLDVEASAKNIAKLIEAGANTFRFNFSHGDHQEQGERMATVKLAEKIAGKKVGFLLDTKGPEIRTELFEGEAKEYSYKTGEKIRVATKQGIKSTREVIALNVAGALDIYDDVEVGRQVLVDDGKLGLRVVAKDDATREFEVEVENDGIIAKQKGVNIPNTKIPFPALAERDNDDIRFGLEQGINFIAISFVRTAKDVNEVRAICEETGNGHVQLFAKIENQQGIDNLDEIIEAADGIMIARGDMGIEVPFEMVPVYQKMIIKKVNAAGKVVITATNMLETMTEKPRATRSEVSDVFNAVIDGTDATMLSGESANGKYPLESVTTMATIDKNAQALLNEYGRLDSDSFERNSKTEVMASAVKDATSSMDIKLVVTLTKTGHTARLISKYRPNADILALTFDELTERGLMLNWGVIPMLTDAPSSTDDMFEIAERKAVEAGLVESGDDIVIVAGVPVGEAVRTNTMRIRTVR
notes: pyruvate kinase (PYK) of Streptococcus pneumoniae, wild type; the strain of the cloned gene and the construct limits are told only in the Supporting information; Homotetramer in the crystal structures; also called SpPYK; PYK
As usually defined, the stoichiometry N is a count of units in the complex or per binding partner. As to B1, the “stoichiometry N” value in data set [7] came out at 4.
